Data reported in patent publication US20200375958A1, “MEMBRANE ACTIVE MOLECULES” (priority 2017, published 2020).
“And” between values parts separate entries of the source, which are not always exact repeats. Identical values can stand only once.

Key:
[1] = system: CF-1 mice; test: Anticonvulsant test in mice: metrazol (pentylenetetrazol) tail vein infusion, time to twitch and seizure; type: in vivo, mouse; details: 8 M butyric acid solution plus metrazol
Method: CF-1 mice were used in this study. Number 20 PE tubing to cannulate a mouse tail vein was used. An infusion pump was used to deliver a solution at a rate of 0.34 mL/min. A hemostat was used to prevent backflow in the PE tubing before the experiment stated. To begin the experiment, the hemostat that was clamped to the PE 20 tubing was removed, the infusion of the solution was started into the tail IV of the mouse, and the timer was started.
The study reflects the time in seconds from the start of the infusion to the time of twitch and onset of seizure, or 90 seconds, whichever is sooner. When the seizure occurs, the infusion is turned off.
As a control, metrazol (pentylenetetrazol) in a 0.5% solution (5 mg/mL) in water was prepared. Pentylenetetrazol is used as a control to study seizure phenomena in and to identify compounds that may control seizure susceptibility. Solutions of 8 M butyric acid and 1.5 M 3-hydroxybutyric acid were made.
The time to twitch and time to seizure of the mouse in seconds is recorded in Tables 3-5, below.

[2] = system: mouse
Method: Butyric acid was dissolved in water to form an 8 M solution. 0.5 mL of the 8 M solution of butyric acid was injected subcutaneously (at the back of the neck) into the mouse.
3-hydroxybutyric acid was dissolved in water to form 1 M, 1.5 M, and 2 M solutions. 0.2 mL of a 1.5 M solution of 3-hydroxybutyric acid was injected into a tail vein of a CD-1 mouse. […] This was repeated for at least 2 more times on subsequent days.
Ethylmalonic acid was dissolved in water to form 2 M, 3 M, and 4 M solutions. 0.2 mL of a 3 M solution of ethylmalonic acid was injected into a tail vein of a mouse. […] This was repeated for at least 2 more times on subsequent days.
Ethylmalonic acid was dissolved in water to form a 4 M solution. 0.5 mL of the 4 M solution of ethylmalonic acid was injected subcutaneously into the mouse.

[3] = system: Tadpoles; test: Tadpole anesthesia test (movement suppressed on contact with rod); type: in vivo; details: read-out: Movement suppressed (%)
Method: Tadpoles were placed in a petri dish containing aquarium water. Four to eight tadpoles were placed in each petri dish. The aquarium water contained the specified test compound at the listed concentration. When the tadpoles stopped moving, a plastic rod was used to elicit motion once again by contact between the rod and tadpole. […] From this and the number of subjects, the percent of tadpoles in which movement was suppressed were calculated.
After 1 to 30 minutes, they were again contacted with a rod to ensure the anesthetic effect had worn off.
In some examples, subanesthetic concentrations of ethanol were added into the aquarium water. Tadpoles in which movement was prevented with exposure to a test compound and ethanol but not with exposure to a test compound alone were classified as partial anesthetics.

[4] = 0.5 mL of 8 M solution in water, subcutaneous (back of the neck)

CCCC(=O)O [Butyric acid]
Butyric Acid and Metrazol Time to Seizures (seconds), Avg. ([1]; average of 13 mice): 51.2 s | Butyric Acid and Metrazol Time to Twitch (seconds), Avg. ([1]; average of 13 mice): 41.4 s | Butyric Acid and Metrazol Time to Seizures ([1]; individual mice): 51 seconds and 50 seconds (2×) and 47 seconds and 57 seconds (3×) and 42 seconds and 66 seconds and 41 seconds and 44 seconds and 38 seconds and 65 seconds | Butyric Acid and Metrazol Time to Twitch ([1]; individual mice): 38 seconds and 42 seconds and 44 seconds and 50 seconds and 34 seconds (2×) and 53 seconds (2×) and 48 seconds and 36 seconds (2×) and 35 seconds (2×) | Lethality to the mouse ([2]; 0.2 mL of 8 M solution in water, intravenous, tail vein): lethal | Anesthetic effect on the mouse [2, 4]: became anesthetized or lost consciousness | Time until mouse became anesthetized or lost consciousness [2, 4]: 10 to 15 min | Time until mouse woke up [2, 4]: several hours | responders at 62500 µM [3]: 100% | responders at 125000 µM [3]: 100% | responders at 250000 µM [3]: 100% | responders at 500000 µM [3]: 100%
